Holding throughout (type): biochemical
One experiment addresses phosphor-Axl (Homo sapiens (Human), UniProt P30530). As to the kind of experiment: TAM Enzymatic Assay (HTRF), Axl. To be noted: recombinant autophosphorylated Axl, 60 min, room temperature. How it is done:
Autophosphorylation of Axl was carried out by incubating the recombinant Axl protein (Life Technologies, PV4275) in buffer containing 50 mM Tris, pH7.5, 0.2 mg/ml Axl, 5 mM ATP, 20 mM MgCl2 and 2 mM DTT at room temperature for 1 hour.
(§1) The kinase assay buffer contained 50 mM HEPES, pH7.5, 10 mM MgCl2, 1 mM EGTA, 0.01% NP-40 and 2 mM DTT. 0.1 ul test compounds dissolved in DMSO were transferred from compound plates to white 384-well assay plates (Greiner […] plates). […] 4 ul enzyme solution (or assay buffer for the enzyme blank) was added to the appropriate wells in each plate, and then 4 ul/well substrate solution was added to initiate the reaction. The plate was protected from light and incubated at room temperature for 60 min. […] The plate was incubated for 1 h at room temperature, and HTRF (homogenous time resolved fluorescence) signal was measured on a PHERAstar FS plate reader (BMG labtech). Percentage of inhibition was calculated for each concentration and IC50 value was generated from curve fitting with GraphPad Prism software.

The target of another experiment is Tyro3 (Homo sapiens (Human), UniProt Q06418). As to the kind of experiment: TAM Enzymatic Assay (HTRF), Tyro3. To be noted: Tyro3, 60 min, room temperature. Here is the method: as §1
Chain of Tyro3 (Q06418 41-890): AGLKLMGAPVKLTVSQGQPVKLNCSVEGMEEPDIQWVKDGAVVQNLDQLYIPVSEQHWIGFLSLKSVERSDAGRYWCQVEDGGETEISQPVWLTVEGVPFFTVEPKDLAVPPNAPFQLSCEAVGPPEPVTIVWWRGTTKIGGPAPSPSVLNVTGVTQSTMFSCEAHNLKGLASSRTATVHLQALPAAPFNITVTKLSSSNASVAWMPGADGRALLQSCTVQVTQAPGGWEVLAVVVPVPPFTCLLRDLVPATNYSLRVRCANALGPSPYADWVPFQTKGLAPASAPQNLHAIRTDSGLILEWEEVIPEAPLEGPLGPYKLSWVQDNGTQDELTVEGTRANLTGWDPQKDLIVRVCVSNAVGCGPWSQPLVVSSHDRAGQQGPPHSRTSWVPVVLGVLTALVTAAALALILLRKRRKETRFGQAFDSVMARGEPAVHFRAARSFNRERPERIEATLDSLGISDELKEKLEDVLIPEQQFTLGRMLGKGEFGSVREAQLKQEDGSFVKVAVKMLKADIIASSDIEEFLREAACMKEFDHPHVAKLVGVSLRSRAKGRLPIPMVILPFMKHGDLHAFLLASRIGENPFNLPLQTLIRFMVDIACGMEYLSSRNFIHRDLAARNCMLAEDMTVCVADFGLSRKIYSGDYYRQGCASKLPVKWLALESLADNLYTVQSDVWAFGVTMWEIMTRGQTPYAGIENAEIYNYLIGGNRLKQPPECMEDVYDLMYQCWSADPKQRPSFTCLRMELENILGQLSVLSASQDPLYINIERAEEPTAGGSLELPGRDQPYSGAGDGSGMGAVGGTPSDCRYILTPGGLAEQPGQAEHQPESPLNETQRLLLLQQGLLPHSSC
Another experiment concerns the target c-Mer (Homo sapiens (Human), UniProt Q12866). As to the kind of experiment: TAM Enzymatic Assay (HTRF), Mer. To be noted: 60 min, room temperature. Here is the method: as §1

Molecules are shown by their SMILES.

Chain of phosphor-Axl (P30530 26-894): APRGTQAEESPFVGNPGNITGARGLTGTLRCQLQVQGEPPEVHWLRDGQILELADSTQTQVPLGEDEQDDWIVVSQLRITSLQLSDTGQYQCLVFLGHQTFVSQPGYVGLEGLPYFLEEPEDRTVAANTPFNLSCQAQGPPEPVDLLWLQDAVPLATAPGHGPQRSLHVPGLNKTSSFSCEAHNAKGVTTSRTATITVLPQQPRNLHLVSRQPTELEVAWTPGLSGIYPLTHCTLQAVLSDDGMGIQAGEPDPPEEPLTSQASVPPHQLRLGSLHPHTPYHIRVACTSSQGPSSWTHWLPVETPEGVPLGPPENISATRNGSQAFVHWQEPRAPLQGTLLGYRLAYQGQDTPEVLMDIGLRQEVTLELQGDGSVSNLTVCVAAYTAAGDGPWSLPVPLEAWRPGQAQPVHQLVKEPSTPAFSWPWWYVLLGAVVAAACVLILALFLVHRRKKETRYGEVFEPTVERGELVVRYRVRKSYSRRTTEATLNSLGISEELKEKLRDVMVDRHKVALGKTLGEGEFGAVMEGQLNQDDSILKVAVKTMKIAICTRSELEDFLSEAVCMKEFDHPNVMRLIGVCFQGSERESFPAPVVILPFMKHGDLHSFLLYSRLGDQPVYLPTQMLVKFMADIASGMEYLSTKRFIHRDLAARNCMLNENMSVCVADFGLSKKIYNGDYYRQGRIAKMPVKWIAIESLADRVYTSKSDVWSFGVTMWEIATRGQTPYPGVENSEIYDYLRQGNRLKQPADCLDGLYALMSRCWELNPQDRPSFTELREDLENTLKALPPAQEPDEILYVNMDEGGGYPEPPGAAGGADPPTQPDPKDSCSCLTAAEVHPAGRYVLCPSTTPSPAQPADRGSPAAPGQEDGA
Chain of c-Mer (Q12866 21-999): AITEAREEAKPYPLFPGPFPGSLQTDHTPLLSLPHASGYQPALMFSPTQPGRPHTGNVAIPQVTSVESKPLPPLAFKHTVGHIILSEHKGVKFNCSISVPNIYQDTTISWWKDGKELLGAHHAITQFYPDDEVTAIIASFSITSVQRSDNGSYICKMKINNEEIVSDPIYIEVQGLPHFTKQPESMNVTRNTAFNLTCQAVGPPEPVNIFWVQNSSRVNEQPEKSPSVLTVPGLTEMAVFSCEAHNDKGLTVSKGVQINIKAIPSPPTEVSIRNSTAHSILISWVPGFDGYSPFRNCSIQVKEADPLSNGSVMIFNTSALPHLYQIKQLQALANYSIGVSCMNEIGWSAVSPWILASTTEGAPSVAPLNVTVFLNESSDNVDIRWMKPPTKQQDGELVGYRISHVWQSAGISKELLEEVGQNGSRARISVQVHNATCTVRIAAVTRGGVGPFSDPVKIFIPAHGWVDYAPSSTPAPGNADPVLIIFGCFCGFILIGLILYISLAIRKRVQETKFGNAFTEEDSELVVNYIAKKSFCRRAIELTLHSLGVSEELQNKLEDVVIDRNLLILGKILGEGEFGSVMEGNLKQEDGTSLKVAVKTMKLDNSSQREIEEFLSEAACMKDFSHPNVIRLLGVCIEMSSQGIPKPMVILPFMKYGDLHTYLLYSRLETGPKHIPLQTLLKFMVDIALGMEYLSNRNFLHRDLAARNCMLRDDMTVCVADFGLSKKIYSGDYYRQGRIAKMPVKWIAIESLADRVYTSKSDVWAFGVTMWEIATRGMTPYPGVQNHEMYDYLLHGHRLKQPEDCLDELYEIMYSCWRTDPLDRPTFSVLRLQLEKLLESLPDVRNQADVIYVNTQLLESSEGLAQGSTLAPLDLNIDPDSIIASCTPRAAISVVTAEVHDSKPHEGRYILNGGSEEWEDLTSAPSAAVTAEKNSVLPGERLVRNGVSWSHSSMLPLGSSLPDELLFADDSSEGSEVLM

Regarding `CC(C)C(=O)N1CCC(c2cc(-c3ccc(NC(=O)c4cn(C(C)C)c(=O)n(-c5ccn(C)n5)c4=O)cc3)c3c(N)ncnn23)CC1` [Example 88, N-(4-(4-Amino-7-(1-isobutyrylpiperidin-4-yl)pyrrolo[2,1-f][1,2,4]triazin-5-yl)phenyl)-1-isopropyl-3-(1-methyl-1H-pyrazol-3-yl)-2,4-dioxo-1,2,3,4-tetrahydropyrimidine-5-carboxamide], the results for the concentration for half-maximal inhibition (IC50) at phosphor-Axl, on Tyro3 and at c-Mer were no more than 5 nM, 10 to 100 nM and no more than 5 nM, respectively.
For `Cc1c(-c2ncco2)cc(C(=O)Nc2ccc(-c3cc(C4CCN(C(=O)C(C)C)CC4)n4ncnc(N)c34)cc2)c(=O)n1-c1ccccn1` [Example 126, N-(4-(4-Amino-7-(1-isobutyrylpiperidin-4-yl)pyrrolo[2,1-f][1,2,4]triazin-5-yl)phenyl)-6-methyl-5-(oxazol-2-yl)-2-oxo-2H-[1,2′-bipyridine]-3-carboxamide], the 50% inhibitory concentration (IC50) on phosphor-Axl was no more than 5 nM; against Tyro3 it was greater than 100 nM; at c-Mer, no more than 5 nM.
For `Nc1ncnn2c1c(-c1ccc(NC(=O)c3cccn(-c4ccccc4)c3=O)cc1F)cc2[C@H]1CC[C@@H](O)CC1` [Example 18, N-{4-[4-Amino-7-(cis-4-hydroxycyclohexyl)pyrrolo[2,1-f][1,2,4]triazin-5-yl]-3-fluorophenyl}-2-oxo-1-phenyl-1,2-dihydropyridine-3-carboxamide], the IC50 at phosphor-Axl and against c-Mer was no more than 5 nM throughout.
Take `Nc1ncnn2c(C3CCN(CCO)CC3)cc(-c3ccc(NC(=O)c4cccn(-c5ccc(F)cc5)c4=O)cc3)c12` [Example 53, N-(4-{4-Amino-7-[1-(2-hydroxyethyl)piperidin-4-yl]pyrrolo[2,1-f][1,2,4]triazin-5-yl}phenyl)-1-(4-fluorophenyl)-2-oxo-1,2-dihydropyridine-3-carboxamide]: the IC50 at c-Mer is no more than 5 nM.
Turning to `CCc1cc(-c2ccc(NC(=O)c3cccn(-c4ccccc4)c3=O)cc2F)c2c(N)ncnn12` [Example 12, N-[4-(4-Amino-7-ethylpyrrolo[2,1-f][1,2,4]triazin-5-yl)-3-fluorophenyl]-2-oxo-1-phenyl-1,2-dihydropyridine-3-carboxamide], the IC50 on Tyro3 was greater than 100 nM; on c-Mer, no more than 5 nM.
With `CC(C)C(=O)N1CCC(c2cc(-c3ccc(NC(=O)c4ccc(-c5ccccn5)n(-c5ccccc5)c4=O)cc3)c3c(N)ncnn23)CC1` [Example 104, N-(4-(4-Amino-7-(1-isobutyrylpiperidin-4-yl)pyrrolo[2,1-f][1,2,4]triazin-5-yl)phenyl)-6-oxo-1-phenyl-1,6-dihydro-[2,2′-bipyridine]-5-carboxamide], the IC50 on phosphor-Axl and against c-Mer was no more than 5 nM throughout.
For the compound `CN1CCC(c2cc(-c3ccc(NC(=O)c4cccn(-c5ccc(F)cc5)c4=O)cc3)c3c(N)ncnn23)CC1` [Example 21, N-{4-[4-Amino-7-(1-methylpiperidin-4-yl)pyrrolo[2,1-f][1,2,4]triazin-5-yl]phenyl}-1-(4-fluorophenyl)-2-oxo-1,2-dihydropyridine-3-carboxamide], at c-Mer, the IC50 was no more than 5 nM.
Consider `Cc1cccc(-n2c(=O)c(C(=O)Nc3ccc(-c4cc(C5CCN(C(=O)C(C)C)CC5)n5ncnc(N)c45)cc3)cn(C(C)C)c2=O)n1` [Example 149, N-(4-(4-Amino-7-(1-isobutyrylpiperidin-4-yl)pyrrolo[1,2-f][1,2,4]triazin-5-yl)phenyl)-1-isopropyl-3-(6-methylpyridin-2-yl)-2,4-dioxo-1,2,3,4-tetrahydropyrimidine-5-carboxamide], for which the IC50 at phosphor-Axl was no more than 5 nM; on Tyro3 it was greater than 100 nM.
For `CCn1cc(C(=O)Nc2ccc(-c3cc(C4CCN(C(=O)N(C)C)CC4)n4ncnc(N)c34)cc2)c(=O)n(-c2cccc(F)c2)c1=O` [Example 72, N-(4-(4-Amino-7-(1-(dimethylcarbamoyl)piperidin-4-yl)pyrrolo[1,2-f][1,2,4]triazin-5-yl)phenyl)-1-ethyl-3-(3-fluorophenyl)-2,4-dioxo-1,2,3,4-tetrahydropyrimidine-5-carboxamide], in that order: no more than 5 nM and greater than 100 nM.
For `Cc1ncccc1-c1c(C)n(C2CC2)cc(C(=O)Nc2ccc(-c3cc(C4CCN(C(=O)C(C)C)CC4)n4ncnc(N)c34)cc2)c1=O` [Example 142, N-(4-(4-Amino-7-(1-isobutyrylpiperidin-4-yl)pyrrolo[2,1-f][1,2,4]triazin-5-yl)phenyl)-1-cyclopropyl-2,2′-dimethyl-4-oxo-1,4-dihydro-[3,3′-bipyridine]-5-carboxamide] the same measures were no more than 5 nM and greater than 100 nM.
Consider `CC(C)C(=O)N1CCC(c2cc(-c3ccc(NC(=O)c4cn(C5CC5)c(=O)n(-c5ccccn5)c4=O)cc3)c3c(N)ncnn23)CC1` [Example 144, N-(4-(4-Amino-7-(1-isobutyrylpiperidin-4-yl)pyrrolo[1,2-f][1,2,4]triazin-5-yl)phenyl)-1-cyclopropyl-2,4-dioxo-3-(pyridin-2-yl)-1,2,3,4-tetrahydropyrimidine-5-carboxamide], for which the 50% inhibitory concentration (IC50) is no more than 5 nM on phosphor-Axl and greater than 100 nM on Tyro3.
Turning to `Nc1ncnn2c(C3CCOCC3)cc(-c3ccc(NC(=O)c4cccn(-c5ccccc5)c4=O)cc3F)c12` [Example 15, N-{4-[4-Amino-7-(tetrahydro-2H-pyran-4-yl)pyrrolo[2,1-f][1,2,4]triazin-5-yl]-3-fluorophenyl}-2-oxo-1-phenyl-1,2-dihydropyridine-3-carboxamide], the IC50 on phosphor-Axl and on c-Mer was no more than 5 nM each time.
With `Cc1c(-c2cnn(C)c2)cc(C(=O)Nc2ccc(-c3cc(C4CCN(C(=O)C(C)C)CC4)n4ncnc(N)c34)cc2)c(=O)n1-c1ccccc1` [Example 107, N-{4-[4-Amino-7-(1-isobutyrylpiperidin-4-yl)pyrrolo[2,1-f][1,2,4]triazin-5-yl]phenyl}-6-methyl-5-(1-methyl-1H-pyrazol-4-yl)-2-oxo-1-phenyl-1,2-dihydropyridine-3-carboxamide], the IC50 on phosphor-Axl was no more than 5 nM; against Tyro3, greater than 100 nM.
Take `Nc1ncnn2c1c(-c1ccc(NC(=O)c3cccn(-c4ccccc4)c3=O)cc1)cc2[C@H]1CC[C@H](O)CC1` [7 (trans isomer), N-{4-[4-Amino-7-(trans-4-hydroxycyclohexyl)pyrrolo[2,1-f][1,2,4]triazin-5-yl]phenyl}-2-oxo-1-phenyl-1,2-dihydropyridine-3-carboxamide]: at c-Mer, the IC50 is no more than 5 nM.
As for `Cc1c(N2CCOCC2)cc(C(=O)Nc2ccc(-c3cc(C4CCN(C(=O)C(C)C)CC4)n4ncnc(N)c34)cc2)c(=O)n1-c1ccccc1` [Example 110, N-{4-[4-Amino-7-(1-isobutyrylpiperidin-4-yl)pyrrolo[2,1-f][1,2,4]triazin-5-yl]phenyl}-6-methyl-5-morpholin-4-yl-2-oxo-1-phenyl-1,2-dihydropyridine-3-carboxamide], the IC50 at phosphor-Axl was no more than 5 nM; against Tyro3, greater than 100 nM.
As to `Nc1ncnn2c1c(-c1ccc(NC(=O)c3cccn(-c4ccc(F)cc4)c3=O)cc1)cc2[C@H]1CC[C@@H](O)CC1` [Example 17, N-{4-[4-Amino-7-(cis-4-hydroxycyclohexyl)pyrrolo[2,1-f][1,2,4]triazin-5-yl]phenyl}-1-(4-fluorophenyl)-2-oxo-1,2-dihydropyridine-3-carboxamide], the IC50 on phosphor-Axl and on c-Mer was no more than 5 nM each time.
In the case of `Nc1ncnn2c1c(-c1ccc(NC(=O)c3cccn(-c4ccccc4)c3=O)cc1)cc2[C@H]1CC[C@@H](O)CC1` [7 (cis isomer), N-{4-[4-Amino-7-(cis-4-hydroxycyclohexyl)pyrrolo[2,1-f][1,2,4]triazin-5-yl]phenyl}-2-oxo-1-phenyl-1,2-dihydropyridine-3-carboxamide], the concentration for half-maximal inhibition (IC50) against c-Mer was no more than 5 nM.
As for `Cc1cc(C(=O)N(C)C)ncc1-c1cc(-c2ccc(NC(=O)c3cn(C(C)C)c(=O)n(-c4ccccc4)c3=O)cc2)c2c(N)ncnn12` [Example 85, N-(4-(4-amino-7-(6-(dimethylcarbamoyl)-4-methylpyridin-3-yl)pyrrolo[1,2-f][1,2,4]triazin-5-yl)phenyl)-1-isopropyl-2,4-dioxo-3-phenyl-1,2,3,4-tetrahydropyrimidine-5-carboxamide], the IC50 at phosphor-Axl was no more than 5 nM; against Tyro3, greater than 100 nM.
For `CC(C)C(=O)N1CCC(c2cc(-c3ccc(NC(=O)c4cc(C5CC5)nn(-c5ccccc5)c4=O)cc3)c3c(N)ncnn23)CC1` [Example 117, N-{4-[4-Amino-7-(1-isobutyrylpiperidin-4-yl)pyrrolo[2,1-f][1,2,4]triazin-5-yl]phenyl}-6-cyclopropyl-3-oxo-2-phenyl-2,3-dihydropyridazine-4-carboxamide] the same measures were no more than 5 nM and greater than 100 nM.
For `CC(C)C(=O)N1CCC(c2cc(-c3ccc(NC(=O)c4cn(C5CC5)c(=O)n(-c5cccnc5)c4=O)cc3)c3c(N)ncnn23)CC1` [Example 140, N-(4-(4-Amino-7-(1-isobutyrylpiperidin-4-yl)pyrrolo[2,1-f][1,2,4]triazin-5-yl)phenyl)-1-cyclopropyl-2,4-dioxo-3-(pyridin-3-yl)-1,2,3,4-tetrahydropyrimidine-5-carboxamide], in that order: no more than 5 nM and greater than 100 nM.
